Source: the supplement of paper PMC8671470

Tests used:
Conditions in all cases: 72 h
[1] = tested on: HL-60; test: cell viability (% survival relative to DMSO control); higher = less cytotoxic
Summary of the method: (§1)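 HL-60 cells grown in RPMI 1640 with 10% FBS were rescreened against the full library in 384-well plates, in duplicate, at five tenfold concentrations from 1 to 10,000 nM, alongside DMSO or 100 nM of one of three metabolic inhibitors for 72 h at 37 °C, 5% CO2. Reference wells contained DMSO or 10 μM proteasome inhibitor. Viability was read with CellTiter-Glo and normalised to these reference wells, and where reported, area under the curve was taken from four-parameter log-logistic fits in drc and PharmacoGx.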

[2] = tested on: HL-60; test: area under dose-response curve (viability, 1 nM-10 uM) (fraction (0-1)); higher = more sensitive
Summary of the method: as §1

[3] = tested on: myeloid leukemia patient primary cells Pat.10; test: cell viability (% survival relative to DMSO control); higher = less cytotoxic
Summary of the method: (§2)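 Mononuclear cells from patients with AML or CML were thawed, purified on Ficoll and placed in RPMI 1640 with 10% FBS at 10,000 cells/well on 384-well plates. The plates came pre-printed with 70 compounds at five tenfold concentrations spanning 1–10,000 nM, in duplicate, and cells were exposed for 72 h. CellTiter-Glo gave viability, scaled between DMSO wells and wells with 10 μM proteasome inhibitor. Where reported, area under the curve was obtained from log-logistic fits with four parameters using the drc and PharmacoGx R packages.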

[4] = tested on: myeloid leukemia patient primary cells Pat.12; test: as above
Summary of the method: as §2

[5] = tested on: myeloid leukemia patient primary cells Pat.5; test: as above
Summary of the method: as §2

[6] = tested on: myeloid leukemia patient primary cells Pat.3; test: as above
Summary of the method: as §2

[7] = tested on: myeloid leukemia patient primary cells Pat.6; test: as above
Summary of the method: as §2

[8] = tested on: myeloid leukemia patient primary cells Pat.15; test: as above
Summary of the method: as §2

[9] = tested on: myeloid leukemia patient primary cells Pat.13; test: as above
Summary of the method: as §2

[10] = tested on: myeloid leukemia patient primary cells Pat.8; test: as above
Summary of the method: as §2

[11] = tested on: myeloid leukemia patient primary cells Pat.1; test: as above
Summary of the method: as §2

[12] = tested on: myeloid leukemia patient primary cells Pat.4; test: as above
Summary of the method: as §2

[13] = tested on: myeloid leukemia patient primary cells Pat.2; test: as above
Summary of the method: as §2

[14] = tested on: myeloid leukemia patient primary cells Pat.11; test: as above
Summary of the method: as §2

[15] = tested on: myeloid leukemia patient primary cells Pat.14; test: as above
Summary of the method: as §2

[16] = tested on: myeloid leukemia patient primary cells Pat.9; test: as above
Summary of the method: as §2

[17] = tested on: myeloid leukemia patient primary cells Pat.7; test: as above
Summary of the method: as §2

CC(=O)Nc1nc(C)c(-c2ccc(Cl)c(S(=O)(=O)NCCO)c2)s1 [PIK93]
cell viability [%], [1]
Conditions | 0.001 µM | 0.01 µM | 0.1 µM | 1 µM | 10 µM
co-treatment: AZD3965 100 nM | 102.8 | 103 | 100 | 77.3 | 13.3
co-treatment: DMSO vehicle | 98.3 | 101 | 99.6 | 85.1 | 23.5
co-treatment: GSK2194069 100 nM | 102 | 106 | 103 | 81.7 | 18.2
co-treatment: pictilisib 100 nM | 102 | 107 | 97 | 70.2 | 16.6

Conditions | area under dose-response curve, co-treatment: AZD3965 100 nM | area under dose-response curve, co-treatment: DMSO vehicle | area under dose-response curve, co-treatment: GSK2194069 100 nM | area under dose-response curve, co-treatment: pictilisib 100 nM | cell viability, 1 nM [%] | cell viability, 10 nM [%] | cell viability, 100 nM [%] | cell viability, 1000 nM [%] | cell viability, 10000 nM [%]
[2] | 0.172 | 0.135 | 0.154 | 0.181 | – | – | – | – | –
[3] | – | – | – | – | 65.9 | 22.6 | 56.6 | 60.8 | 16.8
[4] | – | – | – | – | 94.1 | 92.3 | 95.9 | 88.3 | 79
[5] | – | – | – | – | 57.4 | 2.24 | 1.33 | 17 | 1.33
[6] | – | – | – | – | 46.7 | 24 | 70.6 | 59.3 | 15.4
[7] | – | – | – | – | 91.8 | 35.2 | 87.8 | 72.1 | 40.8
[8] | – | – | – | – | 83.6 | 92.9 | 65.4 | 9.62 | 2.38
[9] | – | – | – | – | 91.2 | 35.4 | 61.6 | 54.3 | 14.4
[10] | – | – | – | – | 86.5 | 81.9 | 87.9 | 64.2 | 48.8
[11] | – | – | – | – | 83.9 | 67.2 | 62.5 | 22.1 | 12.1
[12] | – | – | – | – | 97.3 | 87.1 | 72.2 | 10.6 | 6.67
[13] | – | – | – | – | 94.4 | 44.8 | 95.8 | 65.5 | 47.8
[14] | – | – | – | – | 96.6 | 85.4 | 88.7 | 54.6 | 32.4
[15] | – | – | – | – | 72.6 | 2.07 | 52.8 | 63.9 | 38.6
[16] | – | – | – | – | 68.9 | 0.773 | 23.7 | 24.5 | 5.28
[17] | – | – | – | – | 61.6 | < 0 | 63.4 | 64.1 | 22
